Measured values as given in patent US12589143B2, “Human anti-PD-L1 peptide vaccines and methods of their use” (priority 2019, dated 2026).
Where no end group is shown, it is not given here.

Columns and labels:
D2F2 WT tumor cells = assay: D2F2 WT tumor challenge in Balb/c mice; format: in vivo; details: day 21 and day 28
Procedure: Balb/c mice 6-8 weeks old, were immunized with G1 and G2 mice were treated with anti-PD-1 mAb (29F.1A12) (G1) or anti-PD-L1 mAb (10F.9G2) (G2 or with MVF-PD-L1 vaccine constructs [PD-L1(92-110)(G3) PD-L1(130-147)(G4)] prior to tumor challenge. Similarly, G10, G11 and G12 are control groups and were not treated prior to tumor cell challenge. G13, G14 and G15 mice were immunized with 100 ug MVF-HER-2(266-296)+100 ug MVF-HER-2(597-626)+ISA720 per mouse for G13, 100 ug MVF-PD-1 (92-110)+100 ug MVF-HER-2(266-296)+100 ug MVF-HER-2(597-626)+ISA720 per mouse for G14 and 100 ug MVF-PD-L1 (130-147)+100 ug MVF-HER-2(266-296)+100 ug MVF-HER-2(597-626)+ISA720 per mouse for G15. The mice were immunized up to 4 times before tumor challenge. […] All the mice had been monitored at least twice per week, and the tumors were measured with calipers as data indicated.
The tumor volumes were measured by calipers and calculated by formula: (length×width2)/2. […] All the peptides immunized groups of mice are shown with less tumor burden than PBS group and mAbs treated groups as well.
G0, G1 and G2 are control groups, mice in these groups were not treated before tumor cells challenge. Following challenge with D2F2 WT tumor cells, G0 mice were treated with PBS (i.p.) twice per week start from day 2 post challenge served as negative control, G1 and G2 mice were treated with anti-PD-1 mAb (29F.1A12) or anti-PD-L1 mAb (10F.9G2), respectively. Treatment for G1 and G2 mouse groups was also started from day 2 post tumor challenge, with 100 ug administered/mouse twice a week. G1 and G2 served as positive control. […] All the mice had been monitored at least twice per week, and the tumors were measured with calipers as data indicated (FIG. 26).
Mice were immunized with designed peptides vaccines as descripted in FIG. 26, which indicated as 1Y, 2Y, 3Y and 4Y here and with 3 weeks apart. […] And the mice were monitor at least twice per week, and the tumors were measured as shown in the data figures.
The tumor volumes were measured by calipers and calculated by formula: (length×width2)/2. […]

PD-1/PD-L1 interaction = target: T1, PD-1/PD-L1 interaction (Homo sapiens, UniProt Q9NZQ7); assay: PD-1/PD-L1 blockade bioassay (Promega); format: cell-based; details: antibodies from immunized rabbits, compared to Nivolumab and Atezolizumab
T1 construct: host or cells: PD-L1 aAPC/CHO-K1 cells and PD-1 effector cells
Procedure: The assay was performed following the manufacturer's protocol for the PD-1/PD-L1 blockade bioassay (Promega).
The bioluminescent cell-based PD-1/PD-L1 blockade bioassays provide a good option for rapid screening of therapeutic antibodies or other compounds developed to interfere with PD-1-signaling interaction. PD1/PD-L1 blockade assay was used to test the functionality of 3 anti-PD-L1 antibodies. It was observed that purified polyclonal anti-PD-L1 antibody from the rabbits was able to block PD1/PD-L1 interaction similar to commercial anti-human PD-L1 antibody (FIG. 12). […] In FIG. 12, we show the capacity of each of the PD-L1 vaccines to block the PD-1:PD-L1 interaction as compared to Nivolumab and Atezolizumab. Remarkably only PD-L1 130-147 antibodies were effective
The assay was performed following the manufacturer's protocol for the PD-1/PD-L1 blockade bioassay (Promega). In brief, 4×10^5 aAPC/CHO-K1 or PD-L1 aAPC/CHO-K1 cells were seeded into 96-well plates in RPMI-1640 with 10% FBS. After overnight culturing, the medium was aspirated, and serially diluted purified PD-L1 or PD-1 antibodies, as well as Nivolumab and Atezolizumab antibodies (as reference antibodies) were added. Next, PD-1 effector cells were co-cultured and plate was kept for 5 h at 37° C. in a humidified 5% CO2 incubator. Following mixing with Bio-Glo Reagent, the luminescence was measured with a luminescence plate reader, SpectraMax M3 plate reader (Molecular Devices).

[1] = tested on: HER-2 positive breast cancer; details: patients with untreated HER-2 positive breast cancer; pertuzumab added to docetaxel and trastuzumab vs without; cited from earlier work

T1 sequence (Q9NZQ7 19-290): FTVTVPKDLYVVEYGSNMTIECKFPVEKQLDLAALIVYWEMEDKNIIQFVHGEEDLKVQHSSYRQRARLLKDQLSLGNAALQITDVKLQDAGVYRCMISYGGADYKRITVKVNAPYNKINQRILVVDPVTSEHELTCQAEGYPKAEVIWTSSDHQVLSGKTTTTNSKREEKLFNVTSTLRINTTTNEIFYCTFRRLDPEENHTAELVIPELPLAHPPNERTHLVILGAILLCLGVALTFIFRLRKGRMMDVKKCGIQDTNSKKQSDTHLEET

Substance | tumor volume (D2F2 WT tumor cells) | blocking of PD-1/PD-L1 interaction (PD-1/PD-L1 interaction) | overall survival [1] [months] | progression-free survival [1] [months]
MVF-PD-1(92-110) (KLLSLIKGVIVHRLEGVEDCRFRVTQLPNGRDFHMSV-NH2) | smaller tumor volume than PBS negative control group and both of mAbs positive control groups | unable to block PD-1 and PD-L1 |  | 
pertuzumab |  |  | 56.5 | 18.5
